Tests used:
Assay in all cases: Test B pre-/postemergence
Type in all cases: in vivo
Parameters in all cases: key: 0 is no effect; 10 is complete control
[1] = system: bedstraw (Galium aparine)
How it was run: (§1)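 Compounds in a surfactant-containing, non-phytotoxic solvent blend are applied to freshly planted seed (preemergence) and, concurrently, to seedlings of 2 to 18 cm at 1–4 leaves (postemergence). Plants stay in the greenhouse twelve to sixteen days and are then scored visually from 0 (no effect) to 10 (complete control).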

[2] = system: blackgrass (Alopecurus myosuroides)
How it was run: as §1

[3] = system: broadleaf signalgrass (Brachiaria decumbens)
How it was run: as §1

[4] = system: cocklebur (Xanthium strumarium)
How it was run: as §1

corn (Zea mays) = system: corn (Zea mays)
How it was run: as §1

[5] = system: crabgrass (Digitaria sanguinalis)
How it was run: as §1

[6] = system: giant foxtail (Setaria faberii)
How it was run: as §1

[7] = system: momingglory (Ipomoea hederacea)
How it was run: as §1

[8] = system: pigweed (Amaranthus retroflexus)
How it was run: as §1

[9] = system: purple nutsedge (Cyperus rotundus)
How it was run: as §1

[10] = system: sugar beet (Beta vulgaris)
How it was run: as §1

[11] = system: velvetleaf (Abutilon theophrasti)
How it was run: as §1

[12] = system: wheat (Triticum aestivum)
How it was run: as §1

wild oat (Avena fatua) = system: wild oat (Avena fatua)
How it was run: as §1

[13] = Preemergence, Rate 62 g/ha, scale of 0 to 10

Cc1cnc(-n2ccc(C(F)(F)C(F)(F)F)n2)nc1C(=O)c1cccc(C(F)(F)F)c1 [Compound 68]
Plant response rating, Bedstraw [1, 13]: 3 | Bedstraw plant response rating ([1]; Rate 62 g/ha, Postemergence): 5 | Bedstraw plant response rating ([1]; Rate 125 g/ha, Postemergence): 6 | Plant response rating, Bedstraw ([1]; Rate 125 g/ha, Preemergence): 5 | Plant response rating, Bedstraw ([1]; Rate 250 g/ha, Postemergence): 9 | Plant response rating, Bedstraw ([1]; Rate 250 g/ha, Preemergence): 6 | Plant response rating, Bedstraw ([1]; Rate 500 g/ha, Postemergence): 10 | Plant response rating, Bedstraw ([1]; Rate 500 g/ha, Preemergence): 6 | Plant response rating, Blackgrass [2, 13]: 3 | Blackgrass plant response rating ([2]; Rate 62 g/ha, Postemergence): 2 | Blackgrass plant response rating ([2]; Rate 125 g/ha, Postemergence): 3 | Plant response rating, Blackgrass ([2]; Rate 125 g/ha, Preemergence): 5 | Plant response rating, Blackgrass ([2]; Rate 250 g/ha, Postemergence): 4 | Plant response rating, Blackgrass ([2]; Rate 250 g/ha, Preemergence): 7 | Plant response rating, Blackgrass ([2]; Rate 500 g/ha, Postemergence): 5 | Plant response rating, Blackgrass ([2]; Rate 500 g/ha, Preemergence): 7 | B. signalgrass plant response rating ([3]; Rate 62 g/ha, Postemergence): 2 | B. signalgrass plant response rating ([3]; Rate 62 g/ha, Preemergence): 5 | B. signalgrass plant response rating ([3]; Rate 125 g/ha, Postemergence): 3 | Plant response rating, B. signalgrass ([3]; Rate 125 g/ha, Preemergence): 8 | Plant response rating, B. signalgrass ([3]; Rate 250 g/ha, Postemergence): 3 | Plant response rating, B. signalgrass ([3]; Rate 250 g/ha, Preemergence): 9 | Plant response rating, B. signalgrass ([3]; Rate 500 g/ha, Postemergence): 5 | Plant response rating, B. signalgrass ([3]; Rate 500 g/ha, Preemergence): 10 | Plant response rating, Cocklebur [4, 13]: 0 | Cocklebur plant response rating ([4]; Rate 62 g/ha, Postemergence): 3 | Plant response rating, Cocklebur ([4]; Rate 250 g/ha, Postemergence): 7 | Plant response rating, Cocklebur ([4]; Rate 250 g/ha, Preemergence): 2 | Plant response rating, Cocklebur ([4]; Rate 500 g/ha, Postemergence): 7 | Plant response rating, Cocklebur ([4]; Rate 500 g/ha, Preemergence): 8 | Plant response rating, Corn (corn (Zea mays); [13]): 0 | Corn plant response rating (corn (Zea mays); Rate 62 g/ha, Postemergence): 1 | Corn plant response rating (corn (Zea mays); Rate 125 g/ha, Postemergence): 1 | Plant response rating, Corn (corn (Zea mays); Rate 125 g/ha, Preemergence): 1 | Plant response rating, Corn (corn (Zea mays); Rate 250 g/ha, Postemergence): 2 | Plant response rating, Corn (corn (Zea mays); Rate 250 g/ha, Preemergence): 1 | Plant response rating, Corn (corn (Zea mays); Rate 500 g/ha, Postemergence): 2 | Plant response rating, Corn (corn (Zea mays); Rate 500 g/ha, Preemergence): 1 | Plant response rating, Crabgrass [5, 13]: 3 | Crabgrass plant response rating ([5]; Rate 62 g/ha, Postemergence): 5 | Crabgrass plant response rating ([5]; Rate 125 g/ha, Postemergence): 8 | Plant response rating, Crabgrass ([5]; Rate 125 g/ha, Preemergence): 4 | Plant response rating, Crabgrass ([5]; Rate 250 g/ha, Postemergence): 8 | Plant response rating, Crabgrass ([5]; Rate 250 g/ha, Preemergence): 9 | Plant response rating, Crabgrass ([5]; Rate 500 g/ha, Postemergence): 8 | Plant response rating, Crabgrass ([5]; Rate 500 g/ha, Preemergence): 10 | Plant response rating, Giant foxtail [6, 13]: 3 | Giant foxtail plant response rating ([6]; Rate 62 g/ha, Postemergence): 1 | Giant foxtail plant response rating ([6]; Rate 125 g/ha, Postemergence): 2 | Plant response rating, Giant foxtail ([6]; Rate 125 g/ha, Preemergence): 6 | Plant response rating, Giant foxtail ([6]; Rate 250 g/ha, Postemergence): 2 | Plant response rating, Giant foxtail ([6]; Rate 250 g/ha, Preemergence): 9 | Plant response rating, Giant foxtail ([6]; Rate 500 g/ha, Postemergence): 3 | Plant response rating, Giant foxtail ([6]; Rate 500 g/ha, Preemergence): 10 | Plant response rating, Morningglory [7, 13]: 3 | Morningglory plant response rating ([7]; Rate 62 g/ha, Postemergence): 2 | Morningglory plant response rating ([7]; Rate 125 g/ha, Postemergence): 8 | Plant response rating, Morningglory ([7]; Rate 125 g/ha, Preemergence): 3 | Plant response rating, Morningglory ([7]; Rate 250 g/ha, Postemergence): 10 | Plant response rating, Morningglory ([7]; Rate 250 g/ha, Preemergence): 5 | Plant response rating, Morningglory ([7]; Rate 500 g/ha, Postemergence): 10 | Plant response rating, Morningglory ([7]; Rate 500 g/ha, Preemergence): 9 | Plant response rating, Redroot pigweed [8, 13]: 8 | Redroot pigweed plant response rating ([8]; Rate 62 g/ha, Postemergence): 9 | Redroot pigweed plant response rating ([8]; Rate 125 g/ha, Postemergence): 10 | Plant response rating, Redroot pigweed ([8]; Rate 125 g/ha, Preemergence): 9 | Plant response rating, Redroot pigweed ([8]; Rate 250 g/ha, Postemergence): 10 | Plant response rating, Redroot pigweed ([8]; Rate 250 g/ha, Preemergence): 10 | Plant response rating, Redroot pigweed ([8]; Rate 500 g/ha, Postemergence): 10 | Plant response rating, Redroot pigweed ([8]; Rate 500 g/ha, Preemergence): 10 | Plant response rating, Nutsedge [9, 13]: 0 | Nutsedge plant response rating ([9]; Rate 62 g/ha, Postemergence): 0 | Nutsedge plant response rating ([9]; Rate 125 g/ha, Postemergence): 0 | Plant response rating, Nutsedge ([9]; Rate 125 g/ha, Preemergence): 0 | Plant response rating, Nutsedge ([9]; Rate 250 g/ha, Postemergence): 0 | Plant response rating, Nutsedge ([9]; Rate 250 g/ha, Preemergence): 0 | Plant response rating, Nutsedge ([9]; Rate 500 g/ha, Preemergence): 0 | Plant response rating, Sugarbeets [10, 13]: 9 | Sugarbeets plant response rating ([10]; Rate 62 g/ha, Postemergence): 10 | Sugarbeets plant response rating ([10]; Rate 125 g/ha, Postemergence): 10 | Plant response rating, Sugarbeets ([10]; Rate 125 g/ha, Preemergence): 10 | Plant response rating, Sugarbeets ([10]; Rate 250 g/ha, Postemergence): 10 | Plant response rating, Sugarbeets ([10]; Rate 250 g/ha, Preemergence): 10 | Plant response rating, Sugarbeets ([10]; Rate 500 g/ha, Postemergence): 10 | Plant response rating, Sugarbeets ([10]; Rate 500 g/ha, Preemergence): 10 | Plant response rating, Velvetleaf [11, 13]: 2 | Velvetleaf plant response rating ([11]; Rate 62 g/ha, Postemergence): 6 | Velvetleaf plant response rating ([11]; Rate 125 g/ha, Postemergence): 7 | Plant response rating, Velvetleaf ([11]; Rate 125 g/ha, Preemergence): 7 | Plant response rating, Velvetleaf ([11]; Rate 250 g/ha, Postemergence): 7 | Plant response rating, Velvetleaf ([11]; Rate 250 g/ha, Preemergence): 7 | Plant response rating, Velvetleaf ([11]; Rate 500 g/ha, Postemergence): 8 | Plant response rating, Velvetleaf ([11]; Rate 500 g/ha, Preemergence): 8 | Plant response rating, Wheat [12, 13]: 1 | Wheat plant response rating ([12]; Rate 62 g/ha, Postemergence): 2 | Wheat plant response rating ([12]; Rate 125 g/ha, Postemergence): 2 | Plant response rating, Wheat ([12]; Rate 125 g/ha, Preemergence): 1 | Plant response rating, Wheat ([12]; Rate 250 g/ha, Postemergence): 2 | Plant response rating, Wheat ([12]; Rate 250 g/ha, Preemergence): 2 | Plant response rating, Wheat ([12]; Rate 500 g/ha, Postemergence): 4 | Plant response rating, Wheat ([12]; Rate 500 g/ha, Preemergence): 4 | Plant response rating, Wild oats (wild oat (Avena fatua); [13]): 4 | Wild oats plant response rating (wild oat (Avena fatua); Rate 62 g/ha, Postemergence): 2 | Wild oats plant response rating (wild oat (Avena fatua); Rate 125 g/ha, Postemergence): 2 | Plant response rating, Wild oats (wild oat (Avena fatua); Rate 125 g/ha, Preemergence): 6 | Plant response rating, Wild oats (wild oat (Avena fatua); Rate 250 g/ha, Postemergence): 2 | Plant response rating, Wild oats (wild oat (Avena fatua); Rate 250 g/ha, Preemergence): 7 | Plant response rating, Wild oats (wild oat (Avena fatua); Rate 500 g/ha, Postemergence): 3 | Plant response rating, Wild oats (wild oat (Avena fatua); Rate 500 g/ha, Preemergence): 8

From US6525001B1, “Substituted pyrimidine and pyridine herbicides” (Mid-American Commercialization Corporation, priority 1997, dated 2003)
